We go through 32 compounds from patent US8558028B2, “Compound capable of inhibiting 17-beta hydroxysteriod dehydrogenase” (University of Bath of Claverton Down, priority 2007, dated 2013).

Molecules are shown by their SMILES.

This assay deals with T1, human 17β-HSD3 (Homo sapiens, UniProt P37058).
T1 construct: 293-EBNA cells stably transfected with 17β-HSD Type 3; expressed in transfected cells; host or cells: human 293-EBNA cells, stably transfected
T1 sequence (P37058 1-310): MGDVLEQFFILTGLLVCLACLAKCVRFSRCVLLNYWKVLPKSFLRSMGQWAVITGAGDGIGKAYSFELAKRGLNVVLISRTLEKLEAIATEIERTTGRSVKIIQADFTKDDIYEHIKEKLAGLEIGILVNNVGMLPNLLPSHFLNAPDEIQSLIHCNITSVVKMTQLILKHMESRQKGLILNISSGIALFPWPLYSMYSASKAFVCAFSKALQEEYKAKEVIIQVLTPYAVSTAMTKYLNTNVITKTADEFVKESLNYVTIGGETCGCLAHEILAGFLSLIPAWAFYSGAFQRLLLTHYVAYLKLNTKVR
Briefly: 17β-Hydroxysteroid dehydrogenase Type 3 activity in stably transfected 293-EBNA cells (TLC assay, 3H-androstenedione to testosterone). It counts as cell-based. The note with it: human 293-EBNA cells stably transfected with 17β-HSD Type 3, mean of at least 2 measurements, typically SD ±5%. As for the experimental part: Assay Protocol-17β-Hydroxysteroid Dehydrogenase Type 3 Activity in the Presence of Regulatory Agents
293-EBNA cells stably transfected with 17β-HSD Type 3 were plated at 50,000 cells/well in 24 well plates in complete growth medium. After 48 hours 2-3 nM ^3H-Androstenedione in assay medium (500 ml DMEM medium with 5 ml 100×L-Glutamine, and 5 ml 7.5% sodium bicarbonate solution) was added with or without test compound at 1.5 ml/well (triplicate), and the cells incubated at 37° C.
Two hours later 1 ml medium was removed from each well and placed in a 125×16 mm glass test tube containing 25 μl of recovery solution (5000 dpm ^14C-Testosterone and 25 μg unlabelled
Testosterone). Ether (4 ml) was added and the tubes vortexed at high speed for 2×30 sec. After the samples had settled into two phases they were snap-frozen in a dry ice/methanol bath. The upper organic phase was decanted into 75×12 mm tubes and evaporated to dryness under an airstream using a sample concentrator (TECHNE) at 40° C. The samples were resuspended in ether (8 drops, then a further 3), spotted onto silica 60 F254 20 cm×20 cm TLC plates, and separated using a 4:1 v/v dichloromethane:ethyl acetate mobile phase.
After drying the plates, the major spots were marked under a UV lamp, cut out, and placed in individual scintillation vials containing 0.5 ml methanol. These were then shaken lightly and allowed to stand for 15 min before adding 10 ml of EcoScint A (scintillation fluid) to each tube along with 0.5 ml assay medium, and counted in a scintillation spectrometer (Beckman) using a program for dual [^3H/^14C] isotopes. The number of cells/well was then counted using a Coulter counter (Beckman).
The inhibitory activity of the test compounds is then assessed by calculating the amount of product formed correcting for crossover between isotope counts, recovery, dilution and non-enzymatic degradation (fmol/hr/million cells) with and without inhibitor, (% inhibition).
Compounds were tested at 10 μM for inhibition of human 17β-HSD3 with typically ˜200,000 to 300,000 human 293-EBNA cells/well.
A word on the inhibition: it is the relative decrease from the control value, in per cent. Higher therefore signals a strong effect. `CC(=O)Nc1ccccc1C(C)Nc1ccccc1Oc1ccc(Cl)cc1` (centres unmarked) had an inhibition at 10 µM above 60%.

Turning to `CC(=O)Nc1ccccc1CNc1ccccc1Oc1ccc(OC(F)(F)F)cc1`, the inhibition at 10 µM is above 60%.

Compound `C=CC[C@H](Nc1ccccc1Oc1ccc(Cl)cc1)c1ccccc1NC(C)=O` came in with an inhibition at 10 µM above 60%.

As for `CC(=O)Nc1ccccc1CNc1cc(F)ccc1Oc1ccc(Cl)cc1`, the inhibition at 10 µM is above 60%.

For `C=CC[C@@H](Nc1ccccc1Oc1ccc(Cl)cc1)c1ccccc1NC(C)=O`, the inhibition at 10 µM was in the range of 20 to 60%.

For `CC(=O)Nc1ccc(CNc2ccccc2Oc2ccc(Cl)cc2Cl)cc1`, the inhibition at 10 µM was below 20%.

Regarding `CC(=O)Nc1ccccc1C(=O)Nc1ccccc1Oc1ccc(Cl)cc1`, the inhibition at 10 µM was below 20%.

`CC(=O)Nc1cc2c(cc1CNc1ccccc1Oc1ccc(Cl)cc1)OCO2` returned an inhibition at 10 µM above 60%.

As for `CCCC(Nc1ccccc1Oc1ccc(Cl)cc1)c1ccccc1NC(C)=O` (centres unmarked), the inhibition at 10 µM is above 60%.

In turn, `CC(=O)N1CCC(C(=O)Nc2cccc(CNc3ccccc3Oc3ccc(Cl)cc3)c2)CC1` returned an inhibition at 10 µM above 60%.

The compound `CC(=O)N1CCC(C(=O)Nc2ccccc2CNc2ccccc2Oc2ccc(Cl)cc2)CC1` returned an inhibition at 10 µM above 60%.

Consider `COc1cc(CNc2ccccc2Oc2ccc(Cl)cc2)c(NC(C)=O)cc1OC`, for which the inhibition at 10 µM was below 20%.

Take `CC(=O)N1CCC(Nc2ccccc2CNc2ccccc2Oc2ccc(Cl)cc2)CC1`: the inhibition at 10 µM lay within 20 to 60%.

For `CC(=O)Nc1ccccc1CNc1ccccc1Oc1ccc(Cl)cc1`, the inhibition at 10 µM was above 60%.

Compound `CCNc1ccccc1C(C)Nc1ccccc1Oc1ccc(Cl)cc1` (centres unmarked) returned an inhibition at 10 µM of 20 to 60%.

Take `CC(=O)Nc1ccccc1CN(C)c1ccccc1Oc1ccc(Cl)cc1`: the inhibition at 10 µM is below 20%.

In turn, `COc1cc(CNc2ccccc2Oc2ccc(Cl)cc2Cl)c(NC(C)=O)cc1OC` gave an inhibition at 10 µM below 20%.

`CC(=O)Nc1ccc(CNc2ccccc2Oc2ccc(Cl)cc2)cc1` gave an inhibition at 10 µM of 20 to 60%.

With `CC(=O)Nc1cccc(CNc2ccccc2Oc2ccc(Cl)cc2)c1`, the inhibition at 10 µM lay in the range of 20 to 60%.

The compound `CC(=O)Nc1c(CNc2ccccc2Oc2ccc(Cl)cc2)ccc2ccccc12` displayed an inhibition at 10 µM below 20%.

Turning to `CC(=O)Nc1ccc(Cl)cc1CNc1ccccc1Oc1ccc(Cl)cc1Cl`, the inhibition at 10 µM is 20 to 60%.

In the case of `CCN(C(C)=O)c1ccccc1C(C)Nc1ccccc1Oc1ccc(Cl)cc1` (centres unmarked), the inhibition at 10 µM was above 60%.

On to `CC(=O)Nc1ccc(Cl)cc1CNc1ccccc1Oc1ccc(Cl)cc1`, for which the inhibition at 10 µM is above 60%.

`CC(=O)Nc1ccc(C)cc1CNc1ccccc1Oc1ccc(Cl)cc1` gave an inhibition at 10 µM above 60%.

Turning to `CC(=O)N(C)c1ccccc1CN(C)c1ccccc1Oc1ccc(Cl)cc1`, the inhibition at 10 µM lay within 20 to 60%.

Consider `CC(=O)Nc1ccccc1CN(C(C)=O)c1ccccc1Oc1ccc(Cl)cc1`, for which the inhibition at 10 µM is below 20%.

In the case of `CC(=O)N(C)c1ccccc1CNc1ccccc1Oc1ccc(Cl)cc1`, the inhibition at 10 µM was above 60%.

For the compound `C=CCC(Nc1ccccc1Oc1ccc(Cl)cc1)c1ccccc1NC(C)=O` (centres unmarked), the inhibition at 10 µM was above 60%.

The compound `CC(=O)Nc1ccccc1C(Cc1ccccc1)Nc1ccccc1Oc1ccc(Cl)cc1` (centres unmarked) displayed an inhibition at 10 µM below 20%.

As to `O=C(Nc1ccccc1C(=O)Nc1ccccc1Oc1ccc(Cl)cc1)c1ccccc1`, the inhibition at 10 µM is below 20%.

In the case of `CC(=O)N1CCC(Nc2ccccc2CN(C(C)=O)c2ccccc2Oc2ccc(Cl)cc2)CC1`, the inhibition at 10 µM is 20 to 60%.

For `CC(=O)Nc1ccc(Cl)cc1CNc1ccccc1Oc1ccc(OC(F)(F)F)cc1`, the inhibition at 10 µM is above 60%.
